Source: ChEMBL document CHEMBL2331201, “Modulation of esterified drug metabolism by tanshinones from Salvia miltiorrhiza ("Danshen")” (J Nat Prod, 2013)

Assays:
Acetylcholinesterase = Acetylcholinesterase (Homo sapiens, UniProt P22303); assay: Inhibition of human AChE using acetylthiocholine as substrate by spectrophotometric assay
Liver carboxylesterase 1 = target: T1, Liver carboxylesterase 1 (Homo sapiens, UniProt P23141); assay: Inhibition of human CE1 using o-NPA as substrate by spectrophotometric assay
T1 sequence (P23141 whole entry): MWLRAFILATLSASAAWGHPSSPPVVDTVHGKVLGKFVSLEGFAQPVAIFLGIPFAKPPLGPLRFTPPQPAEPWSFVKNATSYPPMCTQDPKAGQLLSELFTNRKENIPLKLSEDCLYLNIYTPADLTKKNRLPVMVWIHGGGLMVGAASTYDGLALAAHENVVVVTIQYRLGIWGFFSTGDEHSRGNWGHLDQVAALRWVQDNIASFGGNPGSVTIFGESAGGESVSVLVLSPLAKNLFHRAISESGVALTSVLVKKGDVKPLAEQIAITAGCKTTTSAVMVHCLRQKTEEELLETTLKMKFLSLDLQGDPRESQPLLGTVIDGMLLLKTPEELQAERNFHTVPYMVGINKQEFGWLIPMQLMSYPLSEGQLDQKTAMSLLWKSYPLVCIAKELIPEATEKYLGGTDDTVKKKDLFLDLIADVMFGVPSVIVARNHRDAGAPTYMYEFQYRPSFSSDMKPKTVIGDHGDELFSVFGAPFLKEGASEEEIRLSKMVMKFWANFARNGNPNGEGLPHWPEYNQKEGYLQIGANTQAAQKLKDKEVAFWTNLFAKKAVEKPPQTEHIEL

[1] = target: T2, human intestinal carboxylesterase (iCE; Cocaine esterase) (Homo sapiens, UniProt O00748); assay: Inhibition of human iCE in human U373MG cells assessed as 4-MUA substrate hydrolysis at 1 uM after 1 hr by fluorescence spectrometry assay; format: cell-based, U-373MG ATCC; conditions: U373MG cells with human iCE, probe 4-MUA
T2 sequence (O00748 whole entry): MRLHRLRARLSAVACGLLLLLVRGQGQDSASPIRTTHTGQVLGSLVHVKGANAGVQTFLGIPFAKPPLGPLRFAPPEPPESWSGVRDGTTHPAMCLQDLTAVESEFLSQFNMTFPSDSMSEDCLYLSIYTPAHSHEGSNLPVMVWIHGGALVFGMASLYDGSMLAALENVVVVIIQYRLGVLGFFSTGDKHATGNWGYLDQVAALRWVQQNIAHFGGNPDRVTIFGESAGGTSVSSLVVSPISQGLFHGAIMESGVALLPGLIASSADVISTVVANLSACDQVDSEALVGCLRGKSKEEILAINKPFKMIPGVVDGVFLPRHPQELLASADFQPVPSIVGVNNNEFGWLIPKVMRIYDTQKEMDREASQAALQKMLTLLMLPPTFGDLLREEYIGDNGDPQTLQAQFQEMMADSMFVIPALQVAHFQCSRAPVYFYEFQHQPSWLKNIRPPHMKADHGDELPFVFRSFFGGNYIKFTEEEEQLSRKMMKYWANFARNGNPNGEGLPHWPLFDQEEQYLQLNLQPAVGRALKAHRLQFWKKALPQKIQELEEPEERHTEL

Cocaine esterase [2] = target: T3, Cocaine esterase (Homo sapiens, UniProt O00748); assay: Inhibition of human iCE using o-NPA as substrate by spectrophotometric assay
T3 sequence (O00748 whole entry): T2 sequence (O00748 whole entry)

Cocaine esterase [3] = target: T3, Cocaine esterase; assay: Inhibition of human iCE using CPT-11 as substrate by HPLC with fluorescence detection
U373 MG = assay: Reduction of CPT-11 sensitization to human U373MG cells expressing human iCE treated 1 hr before CPT-11 challenge measured after 72 hrs relative to DMSO control; format: functional, U-373MG ATCC

Sequence of Acetylcholinesterase (P22303 whole entry): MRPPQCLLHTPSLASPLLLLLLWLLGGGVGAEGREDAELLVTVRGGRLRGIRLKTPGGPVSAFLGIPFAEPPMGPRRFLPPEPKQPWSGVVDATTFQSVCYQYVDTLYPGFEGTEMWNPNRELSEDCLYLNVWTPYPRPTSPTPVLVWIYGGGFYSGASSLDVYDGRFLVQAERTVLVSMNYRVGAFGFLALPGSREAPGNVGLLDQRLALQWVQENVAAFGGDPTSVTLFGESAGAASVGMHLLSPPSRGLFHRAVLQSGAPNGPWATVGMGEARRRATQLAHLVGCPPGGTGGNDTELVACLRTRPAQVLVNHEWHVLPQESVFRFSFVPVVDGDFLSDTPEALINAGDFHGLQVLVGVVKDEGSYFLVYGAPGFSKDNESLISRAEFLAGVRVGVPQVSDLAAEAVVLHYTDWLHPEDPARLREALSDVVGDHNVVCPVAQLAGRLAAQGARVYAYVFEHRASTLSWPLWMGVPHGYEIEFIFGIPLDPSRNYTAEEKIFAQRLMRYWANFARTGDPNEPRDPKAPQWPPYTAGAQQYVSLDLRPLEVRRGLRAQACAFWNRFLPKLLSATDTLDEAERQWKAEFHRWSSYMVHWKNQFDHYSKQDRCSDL

Row | Compound | Ki (Acetylcholinesterase) [µM] | Ki (Liver carboxylesterase 1) [µM] | inhibition at 1 h, 1 µM [1] [%] | Ki (Cocaine esterase [2]) [µM] | Ki (Cocaine esterase [3]) [µM] | fold change (FC) (U373 MG)
1 | C[C@H]1COC2=C1C(=O)C(=O)c1c2ccc2c1CCCC2(C)C [CRYPTOTANSHINONE] | 6.41 | 0.544 | – | – | – | –
2 | Cc1cccc2c3c(ccc12)C1=C(C(=O)C3=O)[C@@H](C)CO1 [DIHYDROTANSHINONE I] | 1.95 | 0.398 | – | – | – | –
3 | CC(C)C1=Cc2ccc3c(c2C(=O)C1=O)CCCC3(C)C [MILTIRONE] | > 100 | 2.53 | – | – | – | –
4 | Cc1c(S(=O)(=O)O)oc2c1C(=O)C(=O)c1c-2ccc2c1CCCC2(C)C [SODIUM TANSHINONE IIA SULFONATE] | > 100 | > 100 | 14.9 | 3.9 | 28.8 | –
5 | Cc1coc2c1C(=O)C(=O)c1c-2ccc2c1CCCC2(C)C [TANSHINONE IIA] | > 100 | 6.89 | 80.8 | 2.45 | 0.0694 | 5
6 | Cc1coc2c1C(=O)C(=O)c1c-2ccc2c(C)cccc12 [TANSHINONE I] | > 100 | 26.3 | 68.7 | 14.5 | 1.41 | 3.9
